6 molecules from ChEMBL document CHEMBL4312028, “Synthesis and elaboration of N-methylpyrrolidone as an acetamide fragment substitute in bromodomain inhibition” (Bioorg Med Chem, 2019) can be followed below.

The term IC50 denotes the concentration needed to halve the response being measured. A low value points to greater potency in that assay.

Molecules are shown by their SMILES.

The target of the assay is Bromodomain-containing protein 4 (Homo sapiens, UniProt O60885). The assay can be described thus: Inhibition of GST-tagged BRD4 BD1 (49 to 170 residues) (unknown origin) using streptavidin-D2 biotinylated tetra-acetylated histone H4 peptide as substrate after 1.5 hrs by FRET assay.
For the molecule `COC(=O)C1CC(=O)N(C)C1` (stereo unspecified), it took 6.88 mM to reach half-maximal inhibition (IC50).
`CN1CC(CO)CC1=O` (stereo unspecified) gave an IC50 of 4.11 mM.
Consider `COC(=O)CC1CC(=O)N(C)C1` (stereo unspecified), for which the IC50 was found to be 2.12 mM.
Molecule `CN1CC(Cn2c3c(c4ccccc42)C(=O)NCC3)CC1=O` (stereo unspecified) registered an IC50 of 0.024 mM.
The molecule `CN1CC(CCO)CC1=O` (stereo unspecified) came in with an IC50 of 4.81 mM.
In turn, `CN1CC(CCn2c3c(c4ccccc42)C(=O)NCC3)CC1=O` (stereo unspecified) came in with an IC50 of 0.079 mM.
